{"source": "paper PMC11770630", "about": "(Journal of Medicinal Chemistry, 2025)", "key": {"MERLIN-HCT116 cells": {"tested_on": "MERLIN-HCT116 cells", "assay": "MERLIN BRET biosensor assay of mitochondria-ER distance", "format": "cell-based, human"}, "HCT116 cells [1]": {"tested_on": "HCT116 cells", "conditions": "24 h, safety limit cell viability >80%; for Cell viability (MTT), safety at 1 μM: HCT116, 1 μM; for Cell viability (MTT), safety above 5 μM: HCT116, 5 and 10 μM"}, "[2]": {"tested_on": "lymphoblasts from sporadic ALS patients", "assay": "Electron microscopy of lymphoblast cells", "format": "cell-based, human", "conditions": "5 μM for 24 h"}, "[3]": {"tested_on": "control and sALS lymphoblasts", "assay": "Cholesteryl-esters determination", "format": "cell-based, human", "conditions": "control or sALS lymphoblasts, 5 μM for 24 h"}, "[4]": {"tested_on": "control and sALS lymphoblasts", "assay": "Quantification of lipid droplets", "format": "cell-based, human", "conditions": "control or sALS lymphoblasts, 5 μM for 24 h"}, "HCT116 cells [5]": {"tested_on": "HCT116 cells", "assay": "Extracellular NBD-cholesterol uptake in HCT116 cells", "format": "cell-based, human", "conditions": "HCT116, 5 μM, after 3 h"}, "[6]": {"tested_on": "ALS patient-derived lymphoblastic cell lines", "assay": "Extracellular NBD-cholesterol uptake in patient lymphoblastic cell lines", "format": "cell-based, human", "conditions": "SOD1-ALS lymphoblastoid cell lines, 5 μM, 24 h, NBD-cholesterol 1 h"}, "sALS lymphoblasts": {"tested_on": "sALS lymphoblasts", "assay": "Mitochondrial oxygen consumption rate", "format": "cell-based, human", "conditions": "5 μM, 24 h"}}, "note": "pEC50: −log10 of the molar value.", "data": [{"compound": "O=C(Nc1ccc([N+](=O)[O-])cc1Cl)c1cc(Cl)ccc1O", "note": "[Compound 1, 5-Chloro-N-(2-chloro-4-nitrophenyl)-2-hydroxybenzamide, reference compound]", "values": [{"measurement": "pEC50", "setting": "MERLIN-HCT116 cells; Homo sapiens, read-out: EC50 (BRET), HTS hit", "value": 5.08}]}, {"compound": "O=C(Nc1cccc([N+](=O)[O-])c1)c1cc(Cl)ccc1O", "note": "[Compound 29, 5-Chloro-2-hydroxy-N-(3-nitrophenyl)benzamide]", "values": [{"measurement": "BBB passive permeation (PAMPA)", "value": "demonstrated the capability to cross the BBB through passive permeation"}, {"measurement": "Cell viability (MTT), safety at 1 μM", "setting": "HCT116 cells [1]", "value": "safe"}, {"measurement": "Cell viability (MTT), safety above 5 μM", "setting": "HCT116 cells [1]", "value": "cellular safety above 5 μM"}]}, {"compound": "O=C(Nc1ccc([N+](=O)[O-])cc1)c1cc(Cl)ccc1O", "note": "[Compound 25, 5-Chloro-2-hydroxy-N-(4-nitrophenyl)benzamide]", "values": [{"measurement": "BBB passive permeation (PAMPA)", "value": "demonstrated the capability to cross the BBB through passive permeation"}]}, {"compound": "N#Cc1ccc(NC(=O)c2cc(Cl)ccc2O)cc1", "note": "[Compound 27, 5-Chloro-N-(4-cyanophenyl)-2-hydroxybenzamide]", "values": [{"measurement": "BBB passive permeation (PAMPA)", "value": "demonstrated the capability to cross the BBB through passive permeation"}, {"measurement": "Cell viability (MTT), safety at 1 μM", "setting": "HCT116 cells [1]", "value": "safe"}, {"measurement": "Cell viability (MTT), safety above 5 μM", "setting": "HCT116 cells [1]", "value": "cellular safety above 5 μM"}]}, {"compound": "O=C(Nc1ccc([N+](=O)[O-])cc1F)c1cc(Cl)ccc1O", "note": "[Compound 2, 5-Chloro-N-(2-fluoro-4-nitrophenyl)-2-hydroxybenzamide]", "values": [{"measurement": "Cell viability (MTT), safety at 1 μM", "setting": "HCT116 cells [1]", "value": "safe"}]}, {"compound": "O=C(Nc1ccccc1)c1cc(Cl)ccc1O", "note": "[Compound 24, 5-Chloro-2-hydroxy-N-phenylbenzamide]", "values": [{"measurement": "BBB passive permeation (PAMPA)", "value": "demonstrated the capability to cross the BBB through passive permeation"}, {"measurement": "Number of MERCs (TEM)", "setting": "[2]; lymphoblasts from sALS patients", "value": "rescued the number of contacts"}, {"measurement": "Lipid droplets in cytosol (TEM)", "setting": "[2]; sALS lymphoblasts", "value": "displayed large lipid droplets in their cytosol"}, {"measurement": "Mitochondrial cristae structure (TEM)", "setting": "[2]; sALS lymphoblasts", "value": "cristae structure was restored"}, {"measurement": "Cholesteryl esters levels", "setting": "[3]", "value": "induce the formation of cholesteryl esters"}, {"measurement": "Lipid droplet levels", "setting": "[4]", "value": "increase the levels of lipid droplet"}, {"measurement": "Extracellular cholesterol uptake capacity", "setting": "HCT116 cells [5]", "value": "significantly increased"}, {"measurement": "Extracellular cholesterol uptake", "setting": "[6]", "value": "this change was not observed"}, {"measurement": "BRET signal change (individual data)", "setting": "MERLIN-HCT116 cells; higher doses, normalized to DMSO (MOCK)", "value": "significant BRET increases at higher doses"}, {"measurement": "Cell viability (MTT), safety at 1 μM", "setting": "HCT116 cells [1]", "value": "safe"}, {"measurement": "Cell viability (MTT), safety above 5 μM", "setting": "HCT116 cells [1]", "value": "cellular safety above 5 μM"}, {"measurement": "Basal OCR", "setting": "sALS lymphoblasts", "value": "successfully restored basal OCR levels"}, {"measurement": "Spare respiratory capacity", "setting": "sALS lymphoblasts", "value": "notable improvement in spare respiratory capacity"}]}]}
